In general, EC50 refers to the concentration giving half of the maximal effect. In general, EC99 refers to the concentration needed for an effect of 99%.

Molecules are shown by their SMILES.

The record followed here is ChEMBL document CHEMBL3085678, “3-Azatetracyclo[5.2.1.1(5,8).0(1,5)]undecane derivatives: from wild-type inhibitors of the M2 ion channel of influenza A virus to derivatives with potent activity against the V27A mutant” (J Med Chem, 2013).

Test [1] has as its system Influenza A virus. The experiment in a line: Antiviral activity against Influenza A virus (A/Puerto Rico/8/34(H1N1)) harboring M2 channel S31N and V27T mutant infected in MDCK cells assessed as reduction of cytopathic effect after 72 hrs by MTS assay. The test is classed as functional, organism-based, A/Puerto Rico/8/1934(H1N1).
Test [2] concerns H3N2 subtype. Put plainly: Antiviral activity against Influenza A virus (A/Hong Kong/7/1987(H3N2)) harboring wild type M2 channel infected in MDCK cells assessed as reduction of cytopathic effect after 72 hrs by MTS assay. The class given is functional, organism-based. On the technique in general: Protection from cytopathic effect is a common read-out in antiviral testing.
Test [3] concerns Influenza A virus. The experiment in a line: Antiviral activity against Influenza A virus (A/Puerto Rico/8/34(H1N1)) harboring M2 channel S31N and V27T mutant infected in MDCK cells assessed as reduction of cytopathic effect after 72 hrs by microsocopic analysis. The class given is functional, organism-based, A/Puerto Rico/8/1934(H1N1).
Test [4] relates to H3N2 subtype. The experiment in a line: Antiviral activity against Influenza A virus (A/Hong Kong/7/1987(H3N2)) harboring wild type M2 channel infected in MDCK cells assessed as reduction of cytopathic effect after 72 hrs by microsocopic analysis. The test is classed as functional, organism-based.
Test [5] deals with Influenza B virus. Put plainly: Antiviral activity against Influenza B virus (B/Hong Kong/05/1972) harboring wild type M2 channel infected in MDCK cells assessed as reduction of cytopathic effect after 72 hrs by MTS assay. The class given is functional, cell-based. Particulars: B/Hong Kong/05/1972, MDCK.
The subject of test [6] is Influenza B virus. Put plainly: Antiviral activity against Influenza B virus (B/Hong Kong/05/1972) harboring wild type M2 channel infected in MDCK cells assessed as reduction of cytopathic effect after 72 hrs by microsocopic analysis. The class given is functional, cell-based. The following applies: B/Hong Kong/05/1972, MDCK.
Test [7] concerns H3N2 subtype. Put plainly: Antiviral activity against Influenza A virus (A/Hong Kong/7/1987(H3N2)) harboring wild type M2 channel infected in MDCK cells assessed as concentration required to 2 log10 reduction of virus yield after 24 hrs by RT-PCR analysis. The class given is functional.

As to `CC12CC34CNCC3(C1)CC2(C)C4`, the EC50 was > 100 µM in test [1]; > 100 µM in test [2]; > 100 µM in test [3]; 1.6 µM in test [4]; > 100 µM in test [5]; > 100 µM in test [6].
On to `CN1CC23CC4(C)CC2(C1)CC4(C)C3`, for which the EC50 in test [1], in test [2], in test [3], in test [4], in test [5] and in test [6] was > 100 µM each time.
Consider `CC12CC34CN(C(=N)N)CC3(C1)CC2(C)C4`, for which the EC50 in test [1], in test [2], in test [3], in test [4], in test [5] and in test [6] was > 100 µM in each case.
As for `C1NCC23CC4CC12CC4C3`, the EC50 in test [1] was > 100 µM; in test [2], 7.2 µM; in test [3] it was > 100 µM; in test [4], 7.9 µM; in test [5] it was > 100 µM; in test [6], > 100 µM.
Consider `CN1CC23CC4CC2(CC4C3)C1`, for which the concentration for a half-maximal effect (EC50) in test [1], in test [2], in test [3], in test [4], in test [5] and in test [6] was > 100 µM each time.
Regarding `N=C(N)N1CC23CC4CC2(CC4C3)C1`, the EC50 in test [1], in test [2], in test [3], in test [4], in test [5] and in test [6] was > 50 µM throughout.
Regarding `CCC12CC34CNCC3(C1)CC2(CC)C4`, the EC50 in test [1], in test [2], in test [3], in test [4], in test [5] and in test [6] was > 100 µM throughout.
With `CCC12CC34CN(C(=N)N)CC3(C1)CC2(CC)C4`, the EC50 in test [1], in test [2], in test [3], in test [4], in test [5] and in test [6] was > 100 µM in each case.
`C1CCC23CC45CNCC4(CC2(C1)C5)C3`: the EC50 in test [1], in test [2], in test [3], in test [4], in test [5] and in test [6] was > 100 µM in each case.
Regarding `N=C(N)N1CC23CC45CCCCC4(C2)CC3(C1)C5`, the concentration for a half-maximal effect (EC50) in test [1], in test [2], in test [3], in test [4], in test [5] and in test [6] was > 100 µM throughout.
As to `NC12CC3CC(CC(C3)C1)C2` [AMANTADINE], the EC50 in test [1] was 38 µM; in test [2], 0.82 µM; in test [3], 34 µM; in test [4] it was 0.84 µM; in test [5], > 500 µM; in test [6] it was > 500 µM.
As to `CC(N)C12CC3CC(CC(C3)C1)C2` (stereo not drawn) [RIMANTADINE], the EC50 in test [1] is 4.3 µM; in test [2], 0.12 µM; in test [3], 18 µM; in test [4] it was 0.62 µM; in test [5], > 500 µM; in test [6] it was > 500 µM. The EC99 in test [7] was >4 µM.
